# US8586307B2, “Methods for diagnosing epigenetic, transgenerational effects of environmental toxicants on mammalian germ-lines and treating associated diseases” (priority 2005, dated 2013)
# Assays:
# spermatogenic cells = assay: Spermatogenic cell apoptosis in testis sections (TUNEL) after transient embryonic exposure; conditions: rat, in vivo
# Method: (§1) In Vivo Procedures: Gestating outbred Sprague-Dawley and inbred Fisher mother rats from timed, pregnant colonies housed at the Washington State University Vivarium, were given intraperitoneal injections of vinclozolin (100 mg/kg/day) and methoxychlor (200 mg/kg/day) from embryonic day 8-15 (E8-E15, sperm positive vaginal smear date=E0) of gestation (F0 generation) as previously described. Gestating mothers administered vehicle, sesame oil or DMSO, served as controls. At least 6 lines (individual F0 injected females) were generated for controls and treated groups for these analyses. Male rats from control and treated groups were collected at P60-P180 for analyses. F1 treated males were bred to F1 treated females to generate the F2 treated generation and F2 treated males were bred to F2 treated females to generate the F3 generation and the F3 were bred in the same manner to generate the F4 generation. Rats for the control groups were bred in the same manner for all the generations. No inbreeding or sibling crosses were generated. The outcross group (VOC) were generated by breeding the F2 treated males with wild-type females (total of 6 litters) and reverse outcross group (RVOC) was generated by breeding F2 treated females with wild-type males (total of 3 litters). Control (n=4) and treated (n=4) male offspring from the F1 generation from Fisher strain rats were collected at P6 for DNA methylation analysis, see below. All procedures have been approved by the Washington State University Animal Care Committee. The number of animals used for replicates in the experiments (i.e. n value) are as follows for vinclozolin treatment: F1 (control 11, treated 12); F2 (control 19, treated 30); F3 (control 19, treated 26); F4 (control 10, treated 17); VOC (18); and RVOC (6). […]
# Detection of Cell Apoptosis: To detect apoptotic cells in testis sections, the Fluorescien In Situ Cell Death Detection Kit (Roche Applied Science, Indianapolis, Ind.) was utilized. […] Fluorescent apoptotic cells were imaged on a confocal microscope and quantitation of number of apoptotic cells per testis cross section. […]
# epididymal sperm = conditions: rat, in vivo
# Method: as §1, with “Committee.” for “Committee. The number of animals used for replicates in the experiments (i.e. n value) are as follows for vinclozolin treatment: F1 (control 11, treated 12); F2 (control 19, treated 30); F3 (control 19, treated 26); F4 (control 10, treated 17); VOC (18); and RVOC (6).”
# Sperm Motility and Concentration Analysis: Animals were sacrificed and cauda epididymal sperm motility was determined using cauda epididymal sperm. […] All the motile sperm including rapid progressive, slow progressive and non-progressive were counted according to WHO category. Percent ratio of the motile sperm to the total number of sperm including immotile sperm was calculated. Epididymal sperm count was determined using the same epididymis sample according to a previously described method with some modifications.
# male rats = conditions: rat, in vivo
# Method: (§2) In Vivo Procedures: Gestating outbred Sprague-Dawley and inbred Fisher mother rats from timed, pregnant colonies housed at the Washington State University Vivarium, were given intraperitoneal injections of vinclozolin (100 mg/kg/day) and methoxychlor (200 mg/kg/day) from embryonic day 8-15 (E8-E15, sperm positive vaginal smear date=E0) of gestation (F0 generation) as previously described. Gestating mothers administered vehicle, sesame oil or DMSO, served as controls. At least 6 lines (individual F0 injected females) were generated for controls and treated groups for these analyses. Male rats from control and treated groups were collected at P60-P180 for analyses. F1 treated males were bred to F1 treated females to generate the F2 treated generation and F2 treated males were bred to F2 treated females to generate the F3 generation and the F3 were bred in the same manner to generate the F4 generation. Rats for the control groups were bred in the same manner for all the generations. No inbreeding or sibling crosses were generated. The outcross group (VOC) were generated by breeding the F2 treated males with wild-type females (total of 6 litters) and reverse outcross group (RVOC) was generated by breeding F2 treated females with wild-type males (total of 3 litters). Control (n=4) and treated (n=4) male offspring from the F1 generation from Fisher strain rats were collected at P6 for DNA methylation analysis, see below. All procedures have been approved by the Washington State University Animal Care Committee. The number of animals used for replicates in the experiments (i.e. n value) are as follows for vinclozolin treatment: F1 (control 11, treated 12); F2 (control 19, treated 30); F3 (control 19, treated 26); F4 (control 10, treated 17); VOC (18); and RVOC (6). For methoxychlor treatment animal number was for F1 (control 6, treated 9) and F2 (control 16, treated 22).
# Histology: Tissues were fixed in Bouin's (Amresco, Solon Ohio) and embedded in paraffin, and then sections stained with hematoxylin and eosin, according to standard procedures. The n=50 treated vinclozolin, n=42 controls.
# E16 testis = assay: Microarray gene expression analysis of embryonic testis; type: in vivo, rat; conditions: F1 and F2 generation E16 testis vs control
# Text: Microarray analysis: RNA was collected from embryonic day […] 16 (E16) testis from control and E16 vinclozolin F1 and F2 generation animals as described above for Example I. RNA was hybridized to the Affymetrix (Affymetrix, Santa Clara, Calif.) rat 230A gene chip. The Genomics Core in the Center for Reproductive Biology at Washington State University, Pullman, Wash., performed the analysis as previously described, and incorporated by reference herein [149, 150]. Briefly, RNA from the cells was reverse transcribed into cDNA then was transcribed into biotin labeled RNA. Biotin labeled RNA was then hybridized to the Affymetrix rat 230A gene chips. Each gene set is composed of 16 pairs of […] oligonucleotides, with one sense strand specific for the gene and one anti-sense strand with single point mutations for use as a comparative negative control. Biotinalated RNA was then visualized by labeling with phycoerythrin-coupled avidin. The microarray was scanned on a Hewlett-Packard Gene Array Scanner (Hewlett-Packard Co., Palo Alto, Calif.).
# Bioinformatics: The majority of the data analysis was performed using the Affymetrix Microarray Suite Software (Affymetrix, Santa Clara, Calif.). […] Basic expression analysis was determined by accessing the Affymetrix database through the Microarray Suite Software. […]
# NCAM1 = assay: Semi-quantitative PCR of NCAM1 expression in adult brain; type: in vivo, rat; conditions: F3 generation males vs control
# Method: The expression of one of the known genes nearest an altered methylation site identified candidate #1 (NCAM1), is primarily brain specific. An analysis of gene expression for NCAM in the brain was performed. Brains from adult control and vinclozolin F3 generation males were isolated, and RNA was prepared. Four control and five vinclozolin F3 generation animals were analyzed separately. […] This decreased expression of NCAM1 was quantitated, and over a 10-fold reduction in expression was observed between control and vinclozolin F3 generation males, FIG. 15C. Therefore, the hypermethylation of the candidate #1 site in sperm DNA was associated with a reduction in NCAM1 expression in the adult male brain, in vinclozolin F3 generation animals.
# [1] = General observations (body weight, litter size, serum testosterone, other tissues); type: in vivo, rat
# Method: as §2
# pregnant females = assay: Ovary and pregnancy outcomes in vinclozolin generation females; type: in vivo, rat; conditions: preliminary data
# Text: The abnormal phenotype has similarities to pre-eclampsia that include death, severe anemia and blood cell defects, occurring in approximately 15% of all pregnancies in vinclozolin-generation females. Other disease states, as such as prostate abnormalities, tumor development, abnormal immune system activation and premature aging, may be induced by the epigenetic transgenerational actions of the endocrine disruptors.
# F1 generation testis = conditions: cited from earlier work
structure (smiles),measurement,setting,value
C=CC1(C)OC(=O)N(c2cc(Cl)cc(Cl)c2)C1=O (centres unmarked) [vinclozolin],males analyzed that had the increased spermatogenic cell apoptosis,spermatogenic cells; male,Greater than 90%
same,effect on the spermatogenic cells in reverse outcross (RVOC),spermatogenic cells,no effect
same,spermatogenic cell apoptosis in outcross (VOC) males,spermatogenic cells,increase
same,sperm forward motility reduced,epididymal sperm; male,approximately 20%
same,sperm numbers reduced,epididymal sperm; male,approximately 20%
same,sperm number and motility in outcross (VOC) males,epididymal sperm,decrease
same,animals that developed a dramatic decrease in spermatogenic capacity,male rats; male,approximately 20%
same,animals with infertility associated with small testis and severely reduced spermatogenesis,male rats; male,4 animals
same,transgenerational animals that developed complete infertility,male rats; male,8%
same,"histology of the testis, control versus treated",male rats,similar
same,infertility in outcrossed (VOC) males,male rats,increased infertility
same,infertility in reverse outcross (RVOC),male rats,no infertility
same,"expression of Fadd, Pbm1b, Rps12 and Waspip",E16 testis,increased expression
same,"expression of ankyrin 28, Ncstn, Rab12 and Lrrn6a",E16 testis,reduced expression
same,reduction in NCAM1 expression,NCAM1,> 10 fold
same,serum testosterone levels,[1]; all the animals,normal
same,effect on total body weight,"[1]; rat, in vivo",no effect
same,gross abnormality in any other tissues examined,"[1]; rat, in vivo",No gross abnormality
same,"litter size, newborn pup weights or testis weight per body weight","[1]; rat, in vivo",no change
same,"pregnancies with abnormal phenotype similar to pre-eclampsia (death, severe anemia, blood cell defects)","pregnant females; F1, F2 and F3 generation pregnant females",approximately 15%
same,effect on the female ovary,pregnant females,no major effect
same,adult F1 generation testis phenotype,"F1 generation testis; gestating mother exposed E8-E15, 100 or 200 mg/kg i.p. daily","reduced spermatogenic capacity, increased spermatogenic cell apoptosis and decreased sperm number and motility"
same,effect on the F1 generation testis,"F1 generation testis; rat, in vivo",no effect
